Laboratory results: US12358859B2, “Series of compounds for treatment of skin diseases and other conditions” (Unigen, Inc., priority 2018, dated 2025)
pIC50: −log10 of the molar value. Like-named read-outs stand apart in the source and are kept apart here.

Assays:
Type in all cases: cell-based
[1] = test system: murine melanoma cells B16-F1; assay: Cell viability, tetrazolium reduction assay
Protocol: (§1) All test compounds were initially dissolved in 100% DMSO at a concentration of 400 mM. Then, 6 μL of 400 mM test compounds were added to 1.2 mL of the cell growth media giving a final concentration of 2 mM for the test compound and concentration of 0.5% for DMSO. The compounds were centrifuged for 1 h at 20,000×g. Supernatants (1 mL) were collected and filtered through sterile 0.2 μm filters. The compounds were serially diluted in two-fold increments in the sterile cell growth media supplemented with 0.5% DMSO, thus keeping the concentration of DMSO constant for all samples. These serially diluted compounds were subsequently used as two-fold concentrated stock solutions in the melanin production and cell viability assays. Equal volumes of 2× compounds were mixed with media containing 2 nM α-MSH to give a final concentration of 1 nM α-MSH, 0.5% DMSO, and 1× concentration of test compounds.
Viability of cells was measured using standard tetrazolium reduction assay based on redox potential of live cells. Cells were seeded in a clear-bottom 96-well plate in RPMI 1640 media with Glutamax (Fisher Scientific, cat #61870036) at a density of 5,000 cells/well. Cells were treated with test compounds dissolved in 100 μL RPMI 1640 media and incubated for 48 hours at 37° C. in a humidified atmosphere of 95% air and 5% CO2.
After incubation, 20 μL of Aqueous One Solution were added to each well and the plate was returned to the incubator for 30 minutes. Conversion of tetrazolium was monitored by measuring absorbance of cell wells at 492 nm using a TECAN Genios plate reader.
(§2) More than 90% percent of the melanin produced by cultured melanoma cells is found in extra-cellular media. Therefore, at the end of the experiment melanin-containing media was collected and relative amounts of melanin were determined by absorption at 492 nm. Viability of cells was determined by a commonly used colorimetric procedure that is based on conversion of the tetrazolium compounds to colored formazan products (using Promega's CellTiter96 AqueousOne assay). Dehydrogenase enzymes in metabolically active cells accomplish this conversion, and the amount of formazan product is directly proportional to the number of living cells in culture. Mean (n=2) absorption of wells containing no cells was subtracted as blanks. The results were computed as percent of wells that contained the cells but no test compounds.

[2] = test system: murine melanoma cells B16-F1; assay: Melanin production by murine melanoma cells B16-F1; conditions: Mus musculus, B16-F1, 1 nM α-MSH, 48 hours
Protocol: Selected compounds were then tested for the ability to suppress melanin production by the murine melanoma cells B16-F1 as detailed below.
Murine melanoma cells B16-F1 were purchased from the ATCC (Cat #CRL-6323). Cell Titer96 AqueousOne Solution was purchased from Promega (Cat #G3582). 0.2 μm pore size, low protein binding filters were purchased from PALL Life Sciences. (Cat #PN4454).
Alpha-MSH was purchased from the Sigma Aldrich (Cat #M4135-1MG). All tissue culture reagents were purchased from VWR (phenol-red-free DMEM, cat #12001-630, L-glutamine, cat #12001-698) and Fisher Scientific (Trypsin-EDTA, cat #25-200-056).
The B16-F1 cells were maintained in cell growth media (DMEM/High Glucose supplemented with glutamine, 10% fetal bovine serum, 50 units/ml penicillin, and 50 units/mL of streptomycin) at 37° C. in a humidified atmosphere of 95% air and 5% CO2.
as §1
B16-F1 cells were seeded into the wells of clear-bottom 24-well plates at 50,000 cells per well, in 0.5 mL of cell growth media. On the following day, 0.5 mL of freshly prepared test compounds containing α-MSH were added to the wells. The cells were maintained at 37° C. in a humidified atmosphere of 95% air and 5% CO2 for 48 hours. At the end of the incubation period, melanin-containing conditioned media was removed from the cells and transferred to another plate. To measure melanin content the light absorbance of conditioned media was taken at 492 nm using a TECAN Genios plate reader.
as §2

[3] = test system: Propionibacterium acnes (ATCC11827); assay: P-acne MIC/MBC test; conditions: Cutibacterium acnes; for MIC: ATCC11827, 24 h, lowest level that inhibits growth, turbidity, 1 day, read-out: MIC; for MBC: ATCC11827, lowest concentration required to kill the bacterium, read-out: MBC
Protocol: The anti-microbial activity of the tested compounds were evaluated using published methods (Modugno e. al. (1994) Antimicrobial agents and Chemotherapy 38: 2362-2368; […] et. al. (1973) Antimicrobial agents and Chemotherapy 3: 40-48. Propionibacterium acnes (ATCC11827) was cultured for 20 hours at 37° C. in Reinforced Clostridal medium. The test article and positive control were dissolved in 1% DMSO with an incubation volume of 1 mL. The time of assessment was 1 day. Measurement of turbidity was used as the method of quantification. The compounds were tested in duplicate at concentrations of 250 ug/mL, 125 ug/mL, 62 ug/mL, 31 ug/mL, 16 ug/mL, 8 ug/mL, 4 ug/mL, 2 ug/mL relative to positive control ampicillin at 0.1 ug/mL.

[4] = test system: reconstructed skin (keratinocytes and melanocytes); assay: Reconstructed human skin model (Melanoderm); conditions: for toxicity on reconstructed skin: at 0.05%
Protocol: The skin whitening effects of test compounds were studied using a reconstructed skin model, Melanoderm™ provided by MatTek Corp. (Ashland, Mass.) according to the manufacturer's specifications. Briefly, normal human epidermal keratinocytes and normal human melanocytes derived from dark skin donors were co-cultured on a surface of collagen-coated membrane to form multi-layered, highly differentiated skin tissue (MEL-300-B). The tissues were maintained in the CO2, incubator at 37° C. The apical surfaces of the reconstructed skin (9 mm in diameter) were exposed to air whereas the bottom surfaces remained in contact with 5 mL of maintenance medium, containing skin differentiating factors (EPI-100-NNM-113). Test compounds were formulated in 80% propylene glycol as follows: 10 mg of each test compound was dissolved in DMSO and diluted with 80% propylene glycol (1,2-propanediol, Sigma-Aldrich) to stock concentrations. The compounds were then sterilized by passing through 0.2 um filter and diluted in sterile water/propylene glycol to final test concentrations in 0.5% DMSO, 80% propylene glycol. In addition, the following controls were used: 80% propylene glycol with 0.5% DMSO, and 1% kojic acid in 80% propylene glycol.
‘Test compounds were applied to the apical surface of the tissues as follows: 25 μl of each test compound, 25 μl of 80% propylene glycol (vehicle control), and 25 μl of 1% kojic acid (positive control). The samples were reapplied every other day for 14 days. All the samples were tested in duplicate. At the end of the experiment microscopic images were taken.
The potential skin-whitening properties of test compounds were explored in a reconstructed skin model. The model consists of normal, human-derived epidermal keratinocytes and melanocytes, which have been co-cultured to form a multilayered, highly differentiated human epidermis. In this study the melanocytes were obtained from a highly pigmented donor.
Different concentrations of test compounds, 80% propylene glycol (the vehicle control), or 1% kojic acid (positive control) were repeatedly applied topically on the surface of the reconstructed skin for 15 days. […] Photographs of skin specimen taken after 15 days of the experiment show significant dose-dependent whitening effects on melanocytes, which appear on photographs as dark dendritic cells.

[5] = Tables 1-3, read-out: MELANIN PRODUCTION
[6] = FIGS. 2-8, read-out: IC50, inhibition in the production of melanin

| pIC50 [2, 5] | MIC [3] [µg/mL] | Structure (SMILES) | CELL VIABILITY ([1]; mouse, 48 h) [µM] | MBC [3] [µg/mL] | toxicity on reconstructed skin [4] | LD50, cell viability ([1]; mouse, 48 h) [µM] | pIC50 [2, 6] | whitening effects on melanocytes ([4]; topical, photographs after 14 days) | CELL VIABILITY ([1]; 48 hours, Tables 1-3) [µM] |
| --- | --- | --- | --- | --- | --- | --- | --- | --- | --- |
| 4.09 | – | CC(C)=CCCC(C)=Cc1cccc(O)c1 (mixture of isomers) [Compound 2, (E/Z)-3-(2,6-dimethylhepta-1,5-dienyl)phenol] | 66 | – | – | – | – | – | – |
| 3.79 | < 3.9 | CC(C)=CCC/C(C)=C/c1ccc(O)cc1O [Compound 3, (E/Z)-4-(2,6-dimethylhepta-1,5-dienyl)benzene-1,3-diol] | 172 | < 3.9 | – | – | – | – | – |
| 3.83 | – | CC(C)=CCCC(C)/C=C/c1ccccn1 (stereo not drawn) [Compound 13, (E)-2-(3,7-dimethylocta-1,6-dienyl) pyridine] | 650 | – | – | – | – | – | – |
| 3.83 | – | COc1ccc(/C=C/C(C)CCC=C(C)C)cn1 (stereo not drawn) [Compound 14, (E)-5-(3,7-dimethylocta-1,6-dienyl)-2-methoxypyridine] | 369 | – | – | – | – | – | – |
| 3.79 | < 3.9 | CC(C)=CCCC(C)C/C=C/c1cc(O)cc(O)c1 (stereo not drawn) [Compound 16, (E)-5-(4,8-dimethylnona-1,7-dienyl) benzene-1,3-diol] | 172 | < 3.9 | – | – | – | – | – |
| 4.14 | < 3.9 | CC(C)=CCCC(C)C/C=C/c1cc(OCC(=O)O)cc(OCC(=O)O)c1 (stereo not drawn) [Compound 17, (E)-2,2′-(5-(4,8-dimethylnona-1,7-dienyl)-1,3-phenylene)bis(oxy)diacetic acid] | 127 | < 3.9 | – | – | – | – | – |

| Structure (SMILES) | pIC50 [2, 5] | MIC [3] [µg/mL] | CELL VIABILITY ([1]; mouse, 48 h) [µM] | MBC [3] [µg/mL] | toxicity on reconstructed skin [4] | LD50, cell viability ([1]; mouse, 48 h) [µM] | pIC50 [2, 6] | whitening effects on melanocytes ([4]; topical, photographs after 14 days) | CELL VIABILITY ([1]; 48 hours, Tables 1-3) [µM] |
| --- | --- | --- | --- | --- | --- | --- | --- | --- | --- |
| CC(C)=CCCC(C)/C=C/c1ccc2cc(O)ccc2c1 (stereo not drawn) [Compound 8, (E)-6-(3,7-Dimethylocta-1,6-dienyl) naphthalene-2-ol] | 4.66 | < 3.9 | 68 | < 3.9 | some toxicity | 68 | 4.66 | – | – |
| CC(C)=CCCC(C)/C=C/c1cccnc1 (stereo not drawn) [Compound 12, (E)-3-(3,7-dimethylocta-1,6-dienyl) pyridine] | 4.13 | < 3.9 | – | < 3.9 | some toxicity | 385 | 4.13 | significant whitening effects | 385 |
